In brackets after ≈: the same amount, converted by molar mass. Several values for one entry are separate records, joined by “and”; a condition that tells them apart may be missing. Equal entries are not always repeated. Where two headings read alike, the source gives them in different places.
Experiments:
HIV = experiment: Activity against HIV, test not described; format: cell-based
Description: (§1) and may be prepared by the H2 O2 oxidation of cysteamine (Mills, Jr. et al, J. Am. Chem. Soc., vol. 62, 1173 (1940); and Barnett, J. Chem. Soc., 1944, 5).

[1] = Cytotoxicity in HIV experiments, test not described; format: cell-based
Description: as §1

[2] = system: cystine crystals found in the corneas; conditions: topical aqueous 0.1% and 0.5%; cited from earlier work
epithelial fibroblasts = conditions: cited from earlier work
HTLVIIIB = conditions: 100 μM, added twice-daily, CEM-T4 lymphocytes; cited from earlier work
Lactobacillus gasseri = experiment: Assay of vaginal lactobacillus growth; format: cell-based
Method: Cysteamine was screened with regard to its potential cytotoxicity toward normal vaginal flora. Growth of vaginal lactobacillus was used as a measure of this effect.
Lactobacillus gasseri, obtained from the American Type Culture Collection (Rockville, Md.) is cultured under anaerobic conditions at 37° in the presence of test agent or no additions (control). Beginning at 120 minutes after the start of incubation and at 20 minute intervals, for a total length of 240 minutes, samples are removed from the incubation flasks, and the absorbance of each suspension at 550 nm is determined, as an estimate of cell density. Data are fit to the equation, Ln (Absorbance)=a+b (Time), where a is the absorbance at 0 time, b is the slope of the curve, and time is measured in minutes. The doubling time (TD) is calculated from the equation TD =(Ln 2)/b. Values are given as the doubling time of bacterial growth, together with the 90% confidence limits. Inhibition of bacterial growth by a test agent can be directly calculated from the reciprocal values of the doubling time (i.e., 75% inhibition of the reciprocal of the calculated doubling time is equal to 75% inhibition of bacterial growth).
Dose-response curves are produced by determining the doubling time of the culture in the presence of each of several concentrations of test agent, the exact range of which is determined by the results of the screening test that is described above. The concentration of test agent that inhibits the growth of lactobacillus by 50% (IC50) is determined from the calculated doubling time at each concentration of test agent, with curve-fitting software (TableCurve 2D, version 3.02, Jandel Scientific).

[3] = molecular target: T1, sheep testicular hyaluronidase (Ovis aries, UniProt A0ACI6R774); experiment: Hyaluronidase inhibition assay; format: biochemical; conditions: for Absorbance at 545 nm, Reaction: blank 0.0463
T1 construct: soluble form of GPI-anchored sperm protein
T1 sequence (A0ACI6R774 34-551): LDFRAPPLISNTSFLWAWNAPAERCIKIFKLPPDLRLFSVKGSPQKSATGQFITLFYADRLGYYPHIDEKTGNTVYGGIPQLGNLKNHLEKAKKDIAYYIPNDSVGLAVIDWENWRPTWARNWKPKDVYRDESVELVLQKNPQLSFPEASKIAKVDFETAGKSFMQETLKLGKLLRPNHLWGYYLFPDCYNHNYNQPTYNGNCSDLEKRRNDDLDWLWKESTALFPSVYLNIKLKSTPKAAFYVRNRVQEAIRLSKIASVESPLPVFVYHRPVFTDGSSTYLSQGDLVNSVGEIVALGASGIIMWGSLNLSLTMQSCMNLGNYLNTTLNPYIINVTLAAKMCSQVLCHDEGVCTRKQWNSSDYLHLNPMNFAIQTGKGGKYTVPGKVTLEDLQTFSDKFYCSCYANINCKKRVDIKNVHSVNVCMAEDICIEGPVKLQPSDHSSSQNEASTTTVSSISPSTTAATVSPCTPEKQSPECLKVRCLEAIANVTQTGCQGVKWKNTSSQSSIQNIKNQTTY
Method: Hyaluronidase activity is quantified by measuring the extent of hyaluronic acid hydrolysis. This is measured by determining the concentration of N-acetylglucosamine-reactive material, resulting from enzyme action.
Reaction mixtures contain the following, in a total volume of 0.25 ml: 0.1M sodium acetate, containing 0.15M NaCl, pH 5.5 (Acetate buffer); 7.2 Units sheep testicular hyaluronidase (Sigma, Type III; cat. no. H-2251), from a stock solution dissolved in the Acetate buffer; 0.3 mg/ml hyaluronic acid (Sigma, from bovine vitreous humor, cat-no. H-7630).
The test compound is screened at a concentration of 1 mg/ml, unless aqueous solubility is limited. The enzyme is preincubated with the test agent for 10 minutes prior to starting the reaction by adding hyaluronic acid. Enzyme reactions are determined by the method of Aronson and Davidson (J. Biol. Chem., vol. 242, pp. 437-440 (1967)). Incubations are carried out for 30 minutes at ambient temperature. Reaction product is determined colorimetrically after reaction with p-dimethylaminobenzaldehyde (Reissig et al., J. Biol. Chem., vol. 217, pp. 959-966 (1955)). The absorbance of the resultant adduct is immediately determined at 545 nm.
Differences are determined between absorbencies for reactions run in the presence and absence of hyaluronidase (blank, in which hyaluronidase is added after terminating reaction). This is compared to a standard curve of known amounts of N-acetylglucosamine that were treated identically to enzyme reaction mixtures, and converted to μmole equivalents of N-acetylglucosamine. The data are reported as % inhibition, compared to control. A dose-response curve is generated at several concentrations of test compound if significant inhibition is obtained at the screening concentration.
(§2) IC50 values (those concentrations of inhibitor that produce 50% inhibition under the conditions of the assay) are determined by analyzing enzyme activity as a function of inhibitor concentration, with curve-fitting software (TableCurve 2D, version 3.02; Jandel Scientific).

motile spermatozoa = experiment: Assessment of spermicidal activity (sperm motility, Sander and Cramer); format: cell-based
Method: The method is based on that originally described by Sander and Cramer (F. V. Sander and S. D. Cramer. Human Fertil., vol. 6, pp. 134 (1941)). Apparent spermicidal activity of the test agents are compared to that of a control preparation of nonoxynol-9 (N9).
For the screening of spermicidal activity of a test agent, a solution of 50 mg/ml is prepared in 0.9% NaCl. This solution is adjusted to pH 7.0 with either HCl or NaOH and is further diluted in 0.9% NaCl to concentrations of 25 mg/ml, 10 mg/ml, 5 mg/ml, and 2.5 mg/ml. N9 is prepared as a solution of 100 μg/ml in 0.9% NaCl.
The agents are tested by mixing 40 μl of freshly ejaculated semen with 200 μl of test agent at each concentration. Just prior to and 30 seconds after mixing, the percentage of motile spermatozoa is determined by microscopic observation (400×). If 90-100% inhibition of motility is obtained at the lowest concentration tested, the experiment is repeated with a different range of concentrations, the highest concentration being 2.5 mg/ml. A dose-response curve is constructed.

CEM-T4 lymphocytes = conditions: 100 μM, added twice-daily; cited from earlier work
Human acrosin = molecular target: T2, Human acrosin (Homo sapiens, UniProt P10323); experiment: Acrosin inhibition assay; format: biochemical; conditions: for Acrosin Activity: control 5.4 ± 0.14; for Acrosin Inhibitor (active yes/no): screened at 1 mg/ml
T2 construct: human acrosin is isolated from washed spermatozoa from frozen semen; from tissue; host or cells: washed human spermatozoa from frozen semen; acid extract, ultrafiltration, Sephadex G-150 pool
T2 sequence (P10323 43-343 limits assumed): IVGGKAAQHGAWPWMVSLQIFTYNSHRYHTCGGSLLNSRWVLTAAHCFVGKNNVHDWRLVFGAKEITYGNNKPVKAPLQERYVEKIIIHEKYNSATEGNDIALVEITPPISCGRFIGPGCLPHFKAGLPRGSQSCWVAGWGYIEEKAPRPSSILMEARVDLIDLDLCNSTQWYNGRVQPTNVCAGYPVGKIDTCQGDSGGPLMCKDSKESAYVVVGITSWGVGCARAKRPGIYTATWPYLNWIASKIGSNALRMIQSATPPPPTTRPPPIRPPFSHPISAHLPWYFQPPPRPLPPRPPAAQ
T2 sequence (P10323 20-42 partner limits assumed): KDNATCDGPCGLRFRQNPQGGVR
Method: Human acrosin activity is measured by following the progression of hydrolysis of N-α-benzoyl-L-arginine ethyl ester (BAEE) spectrophotometrically at 253 nm. Enzyme isolation, partial purification and measurement are carried out by methods described in detail by Anderson et al. (Biochem. J., vol. 199, pp. 307-316 (1981)). Briefly, human acrosin is isolated from washed spermatozoa from frozen semen by extraction with 66 mM acetic acid, pH 2.8. The extract is concentrated by ultrafiltration (Amicon PM 10) and applied to a column that contains Sephadex G-150 (superfine); elution is carried out with 55 mM acetic acid that contains 0.1M NaCl. The eluted volume that contains acrosin activity is pooled and used as the source of enzyme.
Enzyme reaction mixtures contain the following: 50 mM sodium phosphate, pH 7.5 (Anderson et al, Arch. Biochem. Biophys., vol. 241, pp. 509-520 (1985)); Enzyme-containing protein (3-5 mIU, where 1 mIU is the amount of enzyme required to hydrolyze 1 nmole BAEE per min); 0.05 mM BAEE; with or without inhibitor, in a total volume of 1.0 ml.
The test compound is screened at a concentration of 1 mg/ml, unless solubility is limited. The enzyme is preincubated with the test agent for 5 minutes prior to starting the reaction by adding BAEE. Reaction blanks, in which either substrate or enzyme has been eliminated, are run in parallel to the reactions.
The rate of change in absorbance at 253 nm is determined. The change in absorbance that corresponds to 1 μmole of BAEE (in a total volume of 1.0 ml) hydrolyzed is taken as 1.15.
The enzyme activity in the presence of each agent is compared with that for the control reaction (no test agent added). The data are reported as % inhibition. […] A dose-response curve is generated at several concentrations of test compound if significant inhibition is obtained at the screening concentration.
Reversibility of acrosin inhibition is determined by the method of Ackermann and Potter (Proc. Soc. Exp. Biol. Med., vol. 72, pp. 1-9 (1949)), in which the level of inhibited enzyme activity is determined in the presence of different amounts of enzyme.
as §2

[4] = 1 mg/ml test agent, 10 min preincubation

**Q.** For `NCCSSCCN` [Cystamine], which “Activity against the HIV pathogen” value (HIV) is on record?
**A.** substantial activity

**Q.** And the Cytotoxicity ([1]; 100 μM)?
**A.** little cytotoxicity

**Q.** With `NCCS` [cysteamine, Cysteamine] as the compound, how does the “Reduction of corneal cystine crystals” value [2] read?
**A.** effective in reducing the cystine crystals

**Q.** What about the “Tolerability in chronic topical use” value [2] of the same compound?
**A.** well-tolerated

**Q.** What about the Cloning efficiency (epithelial fibroblasts; 10 μM) of the same compound?
**A.** severe loss in cloning efficiency

**Q.** What about the Cloning efficiency (epithelial fibroblasts; One hundred μM) of the same compound?
**A.** zero

**Q.** And the Doubling time (epithelial fibroblasts; One hundred μM)?
**A.** two-fold increase

**Q.** What about the “Effect on growth rate” value (epithelial fibroblasts; concentrations up to 10 μM) of the same compound?
**A.** no effect on growth rate

**Q.** And the “Survival of treated cells, protection against HTLVIIIB” value (HTLVIIIB)?
**A.** 133 % of control

**Q.** What about the “% Inhibition at 5 mg/ml (growth of vaginal lactobacillus)” value (Lactobacillus gasseri) of the same compound?
**A.** no effect

**Q.** And the “% Inhibition at 5 mg/ml (growth of vaginal lactobacillus)” value (Lactobacillus gasseri; listed as Cysteamine)?
**A.** No inhibition

**Q.** And the inhibition at 5000 µg/mL (Lactobacillus gasseri; Lactobacillus gasseri, read-out: % Inhibition at 5 mg/ml (growth of vaginal lactobacillus))?
**A.** 0%

**Q.** And the IC20 [3]?
**A.** 87 µg/mL (≈ 1130 µM)

**Q.** And the IC80 [3]?
**A.** 219 µg/mL (≈ 2840 µM)

**Q.** And the “% Inhibition at 1 mg/ml (hyaluronidase)” value [3, 4]?
**A.** completely inhibit

**Q.** And the inhibition at 1000 µg/mL [3, 4]?
**A.** 100%

**Q.** What about the “Absorbance at 545 nm, Reaction” value ([3]; cysteamine 1.6 μg/ml) of the same compound?
**A.** 0.1892 and 0.1967

**Q.** What about the “Absorbance at 545 nm, Reaction” value ([3]; cysteamine 8.0 μg/ml) of the same compound?
**A.** 0.1955 and 0.1853

**Q.** What about the “Absorbance at 545 nm, Reaction” value ([3]; cysteamine 40.0 μg/ml) of the same compound?
**A.** 0.1775 and 0.1855

**Q.** And the “Absorbance at 545 nm, Reaction” value ([3]; cysteamine 200 μg/ml)?
**A.** 0.0585 and 0.0656

**Q.** And the “Absorbance at 545 nm, Reaction” value ([3]; cysteamine 1,000 μg/ml)?
**A.** 0.0068 and 0.0069

**Q.** And the “Hyaluronidase Inhibitor (yes/no)” value ([3]; summary table)?
**A.** Yes

**Q.** What about the “Antiviral effect against HIV” value (HIV; other cell lines and other HIV strains) of the same compound?
**A.** substantiate the antiviral effect

**Q.** And the “Spermicide (effect on sperm motility, in words)” value (motile spermatozoa)?
**A.** reduce sperm motility

**Q.** What about the “Spermicide (effect on sperm motility, in words)” value (motile spermatozoa; listed as Cysteamine) of the same compound?
**A.** Yes

**Q.** What about the Cellular toxicity [1] of the same compound?
**A.** lack of cellular toxicity

**Q.** What about the “Toxicity (cell survival)” value (CEM-T4 lymphocytes) of the same compound?
**A.** 120.8 % of control

**Q.** And the “Acrosin Activity” value (Human acrosin; cysteamine 0.08 mg/ml)?
**A.** 5.2 ± 0.74 μmoles BAEE hydrolyzed/min/mg

**Q.** And the “Acrosin Activity” value (Human acrosin; cysteamine 0.10 mg/ml)?
**A.** 3.8 ± 0.32 μmoles BAEE hydrolyzed/min/mg

**Q.** What about the “Acrosin Activity” value (Human acrosin; cysteamine 0.25 mg/ml) of the same compound?
**A.** 3.4 ± 0.10 μmoles BAEE hydrolyzed/min/mg

**Q.** What about the “Acrosin Activity” value (Human acrosin; cysteamine 0.50 mg/ml) of the same compound?
**A.** 2.2 μmoles BAEE hydrolyzed/min/mg

**Q.** What about the “Acrosin Activity” value (Human acrosin; cysteamine 0.8 mg/ml) of the same compound?
**A.** 0.9 ± 0.28 μmoles BAEE hydrolyzed/min/mg

**Q.** What about the “Acrosin Activity” value (Human acrosin; cysteamine 1.0 mg/ml) of the same compound?
**A.** 0.6 μmoles BAEE hydrolyzed/min/mg

**Q.** And the “3 Log reduction (99.9% inhibition) of acrosin” value (Human acrosin; from fitted curve, above highest tested concentration)?
**A.** 3.3 mg/ml

**Q.** And the IC99.9 (Human acrosin; from fitted curve, above highest tested concentration, read-out: 3 Log reduction (99.9% inhibition) of acrosin)?
**A.** 3270 µg/mL

**Q.** And the “Reversibility of acrosin inhibition” value (Human acrosin; method of Ackermann and Potter, different amounts of enzyme)?
**A.** consistent with a reversible mechanism of inhibition

**Q.** What about the “Acrosin Inhibitor (active yes/no)” value (Human acrosin) of the same compound?
**A.** active

**Q.** And the “Acrosin Inhibitor (active yes/no)” value (Human acrosin; listed as Cysteamine)?
**A.** Yes

**Q.** What about the IC50 (Human acrosin; summary table) of the same compound?
**A.** 4.8 mM

**Q.** What does the source list for “nonylphenoxypolyoxyethene glycol [nonoxynol-9, reference compound]”?
**A.** % Inhibition (growth of vaginal lactobacillus) (Lactobacillus gasseri; Tested at 0.5 mg/ml): 60%; % Inhibition at 1 mg/ml (hyaluronidase) [3, 4]: 4%
